The values below come from patent US8680108B2, “Substituted fused aryl and heteroaryl derivatives as PI3K inhibitors” (Incyte Corporation, priority 2009, dated 2014).

The target of test [1] is T1, PI3Kδ (p110δ/p85α) (Homo sapiens, UniProt O00329).
T1 construct: purchased Millipore (Bedford, Mass.)
Kind of test: PI3Kδ scintillation proximity assay. The class given is biochemical. In short, it runs like this:
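Purified p110δ/p85α (4 nM) phosphorylated 20 μM diC8-PIP2 with 20 μM ATP plus [γ-33P]ATP in MOPS pH 6.7, MgCl2, DTT, CHAPS, 0.5% DMSO, 210 minutes at room temperature. Stopped with EDTA/ATP quench containing WGA SPA beads; scintillation counted. IC50 from percent control activity versus log inhibitor concentration.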

For test [2], the system named is Pfeiffer cell line (diffuse large B cell lymphoma). The experiment in a line: Pfeiffer cell proliferation assay. The test is classed as cell-based. Here is the method:
Pfeiffer cell line (diffuse large B cell lymphoma) was purchased from ATCC (Manassas, Va.) and maintained in the culture medium recommended (RPMI and 10% FBS). To measure the anti-proliferation activity of the compounds, the Pfeiffer cells were plated with the culture medium (2×10^3 cells/well/per 200 μl) into 96-well ultra-low binding plates (Corning, Corning, N.Y.), in the presence or absence of a concentration range of test compounds. […]

[3] abbreviates: Homo sapiens, Pfeiffer, second of two isolated isomers.
[4] abbreviates: Homo sapiens, Pfeiffer, first of two isolated isomers.

Structures can show the parent of a compound that is named as a salt. Where two headings read alike, the source gives them in different places.

T1 sequence (O00329 whole entry): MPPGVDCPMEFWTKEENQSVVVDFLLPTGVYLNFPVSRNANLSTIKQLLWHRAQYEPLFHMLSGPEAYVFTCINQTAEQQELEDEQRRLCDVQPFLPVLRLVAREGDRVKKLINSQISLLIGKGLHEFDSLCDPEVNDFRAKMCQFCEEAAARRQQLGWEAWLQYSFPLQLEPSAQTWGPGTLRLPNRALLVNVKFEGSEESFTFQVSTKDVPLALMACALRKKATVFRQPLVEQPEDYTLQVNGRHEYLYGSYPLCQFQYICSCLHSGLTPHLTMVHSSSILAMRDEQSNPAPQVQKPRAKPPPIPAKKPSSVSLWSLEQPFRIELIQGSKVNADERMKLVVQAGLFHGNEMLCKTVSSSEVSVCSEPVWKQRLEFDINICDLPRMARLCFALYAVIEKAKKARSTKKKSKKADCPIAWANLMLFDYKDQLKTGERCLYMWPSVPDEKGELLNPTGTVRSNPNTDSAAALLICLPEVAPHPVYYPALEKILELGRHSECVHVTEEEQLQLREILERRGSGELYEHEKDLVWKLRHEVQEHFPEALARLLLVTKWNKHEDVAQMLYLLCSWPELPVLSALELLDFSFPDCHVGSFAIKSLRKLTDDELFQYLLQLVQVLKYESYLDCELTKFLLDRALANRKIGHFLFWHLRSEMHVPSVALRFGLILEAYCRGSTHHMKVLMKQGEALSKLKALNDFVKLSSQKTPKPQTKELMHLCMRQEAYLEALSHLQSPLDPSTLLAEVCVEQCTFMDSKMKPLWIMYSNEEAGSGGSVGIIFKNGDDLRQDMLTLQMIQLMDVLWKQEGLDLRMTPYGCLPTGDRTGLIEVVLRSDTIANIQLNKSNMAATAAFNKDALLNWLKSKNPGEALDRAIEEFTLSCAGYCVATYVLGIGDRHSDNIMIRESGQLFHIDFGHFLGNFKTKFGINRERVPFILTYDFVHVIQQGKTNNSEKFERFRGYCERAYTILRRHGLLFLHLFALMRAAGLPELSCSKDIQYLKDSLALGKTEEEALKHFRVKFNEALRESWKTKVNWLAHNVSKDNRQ
T1 sequence (P27986 whole entry partner): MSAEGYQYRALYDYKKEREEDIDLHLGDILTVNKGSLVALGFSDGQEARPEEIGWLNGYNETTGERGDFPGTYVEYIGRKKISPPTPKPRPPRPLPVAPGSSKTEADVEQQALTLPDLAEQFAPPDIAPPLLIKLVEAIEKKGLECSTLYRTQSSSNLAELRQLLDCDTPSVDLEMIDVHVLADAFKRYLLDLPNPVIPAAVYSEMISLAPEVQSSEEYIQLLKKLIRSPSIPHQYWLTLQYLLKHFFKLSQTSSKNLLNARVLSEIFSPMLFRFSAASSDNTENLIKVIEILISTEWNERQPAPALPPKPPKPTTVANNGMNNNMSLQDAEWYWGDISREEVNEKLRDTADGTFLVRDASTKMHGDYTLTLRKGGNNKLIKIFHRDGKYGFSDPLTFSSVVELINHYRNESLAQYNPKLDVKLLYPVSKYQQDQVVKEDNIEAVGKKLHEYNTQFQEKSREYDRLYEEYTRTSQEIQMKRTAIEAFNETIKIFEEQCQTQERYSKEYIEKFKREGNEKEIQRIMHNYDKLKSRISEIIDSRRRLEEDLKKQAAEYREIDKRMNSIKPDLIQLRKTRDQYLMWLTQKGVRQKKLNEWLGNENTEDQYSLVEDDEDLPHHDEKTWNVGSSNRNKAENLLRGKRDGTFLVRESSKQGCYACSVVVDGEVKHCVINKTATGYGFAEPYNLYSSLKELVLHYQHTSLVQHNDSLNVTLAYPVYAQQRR

A word on the IC50: it is the concentration that gives 50% inhibition. A higher IC50 goes with weaker potency in that assay. For `CC(Nc1ncnc2[nH]cnc12)c1cc(Cl)c2cccnc2c1N1CCC(Oc2ccccc2)CC1` (stereo not shown) [Example 75, N-{1-[5-Chloro-8-(4-phenoxypiperidin-1yl)quinolin-7-yl]ethyl}-9H-purin-6-amine bis(trifluoroacetate)], the IC50 is > 1000 nM in test [1] and 250 to 500 nM in test [2] (setting [3]).

Take `CC(Nc1ncnc2[nH]cnc12)c1cc(F)c2cccnc2c1N1CC[C@@H](O)C1` (stereo partly drawn) [Example 53, (3R)-1-{5-fluoro-7-[1-(9H-purin-6-ylamino)ethyl]quinolin-8-yl}pyrrolidin-3-ol]: the IC50 in test [1] (separated isomer, 1st peak) was > 1000 nM; in test [1] (separated isomer, 2nd peak) it was 100 to 250 nM; in test [2] (setting [3]) it was 250 to 500 nM.

Consider `COC(=O)N[C@H]1CCN(c2c(C(C)Nc3ncnc4[nH]cnc34)cc(Cl)c3cccnc23)C1` (stereo partly drawn) [Example 79, Methyl((3S)-1-{5-Chloro-7-[1-(9H-purin-6-ylamino)ethyl]quinolin-8-yl}pyrrolidin-3-yl)carbamate tris(trifluoroacetate)], for which the IC50 in test [1] (separated isomer, 1st peak) was 50 to 100 nM; in test [1] (separated isomer, 2nd peak), < 50 nM; in test [2] (setting [4]), 250 to 500 nM; in test [2] (setting [3]) it was 100 to 250 nM. Take `Cc1cc(C(C)Nc2ncnc3[nH]cnc23)c(-c2cccc(F)c2)c2nnccc12` (single isomer, unassigned) [Example 37, N-{1-[8-(3-fluorophenyl)-5-methylcinnolin-7-yl]ethyl}-9H-purin-6-amine]: the IC50 in test [1] and in test [2] ([3H]-thymidine incorporation) was 500 to 1000 nM each time. In the case of `Cc1cc(C(C)Nc2ncnc3[nH]cnc23)c(-c2cccc(F)c2)c2nnccc12` (single isomer, unassigned) [Example 36, N-{1-[8-(3-fluorophenyl)-5-methylcinnolin-7-yl]ethyl}-9H-purin-6-amine], the IC50 in test [1] and in test [2] ([3H]-thymidine incorporation) was < 50 nM each time.

Turning to `CC(Nc1ncnc2[nH]cnc12)c1cc(Cl)c2cccnc2c1N1CC[C@H](NS(C)(=O)=O)C1` (stereo partly drawn) [Example 80, N-((3S)-1-{5-Chloro-7-[1-(9H-purin-6-ylamino)ethyl]quinolin-8-yl}pyrrolidin-3-yl)methanesulfonamide tris(trifluoroacetate)], the IC50 was 250 to 500 nM in test [1] (separated isomer, 1st peak); < 50 nM in test [1] (separated isomer, 2nd peak); 100 to 250 nM in test [2] (setting [3]). With `CC(Nc1ncnc2[nH]cnc12)c1cc(Cl)c2cccnc2c1N1CCC[C@H](O)C1` (stereo partly drawn) [Example 48, (3S)-1-{5-Chloro-7-[1-(9H-purin-6-ylamino)ethyl]quinolin-8-yl}piperidin-3-ol], the IC50 in test [1] (separated isomer, 1st peak) is < 50 nM; in test [1] (separated isomer, 2nd peak), > 1000 nM; in test [2] (setting [4]) it was > 1000 nM; in test [2] (setting [3]) it was > 1000 nM. `CC(C)C(=O)N[C@H]1CCN(c2c(C(C)Nc3ncnc4[nH]cnc34)cc(Cl)c3cccnc23)C1` (stereo partly drawn) [Example 78, N-((3S)-1-{5-Chloro-7-[1-(9H-purin-6-ylamino)ethyl]quinolin-8-yl}pyrrolidin-3-yl)-2-methylpropanamide tris(trifluoroacetate)]: the IC50 is > 1000 nM in test [1] (separated isomer, 1st peak); < 50 nM in test [1] (separated isomer, 2nd peak); 500 to 1000 nM in test [2] (setting [3]). `COC1CCN(c2c(C(C)Nc3ncnc4[nH]cnc34)cc(Cl)c3cccnc23)C1` (stereo not shown) [Example 68, N-{1-[5-Chloro-8-(3-methoxypyrrolidin-1-yl)quinolin-7-yl]ethyl}-9H-purin-6-amine tris(trifluoroacetate)]: the IC50 was 50 to 100 nM in test [1] (separated isomer, 1st peak); < 50 nM in test [1] (separated isomer, 2nd peak); 100 to 250 nM in test [2] (setting [4]); 50 to 100 nM in test [2] (setting [3]). For `CC(Nc1ncnc2[nH]cnc12)c1cc(Cl)c2cccnc2c1N1CCN(C(=O)N(C)C)CC1` (stereo not shown) [Example 88, 4-{5-Chloro-7-[1-(9H-purin-6-ylamino)ethyl]quinolin-8-yl}-N,N-dimethylpiperazine-1-carboxamide bis(trifluoroacetate)], in test [1], the IC50 was < 50 nM. `COC1CCCN(c2c(C(C)Nc3ncnc4[nH]cnc34)cc(Cl)c3cccnc23)C1` (stereo not shown) [Example 67, N-{1-[5-Chloro-8-(3-methoxypiperidin-1-yl)quinolin-7-yl]ethyl}-9H-purin-6-amine tris(trifluoroacetate)]: the IC50 in test [1] (separated isomer, 1st peak) was 100 to 250 nM; in test [1] (separated isomer, 2nd peak), 250 to 500 nM; in test [2] (setting [4]), 100 to 250 nM; in test [2] (setting [3]), 100 to 250 nM. With `CC(Nc1ncnc2[nH]cnc12)c1cc(Cl)c2cccnc2c1N1CCN(CC(=O)N(C)C)CC1` (stereo not shown) [Example 90, 2-(4-{5-Chloro-7-[1-(9H-purin-6-ylamino)ethyl]quinolin-8-yl}piperazin-1-yl)-N,N-dimethylacetamide tris(trifluoroacetate)], in test [1], the IC50 is < 50 nM. Still for that read-out and setting: to `CC(Nc1ncnc2[nH]cnc12)c1cc(Cl)c2cccnc2c1N1CCC(O)(c2ccccc2)CC1` (stereo not shown) [Example 49, 1-{5-Chloro-7-[1-(9H-purin-6-ylamino)ethyl]quinolin-8-yl}-4-phenylpiperidin-4-ol] belongs > 1000 nM; to `CC(Nc1ncnc2[nH]cnc12)c1cc(Cl)c2cccnc2c1N1CCC(NS(C)(=O)=O)CC1` (stereo not shown) [Example 81, N-(1-{5-Chloro-7-[1-(9H-purin-6-ylamino)ethyl]quinolin-8-yl}piperidin-4-yl)methanesulfonamide bis(trifluoroacetate)], 100 to 250 nM.

Regarding `CC(Nc1ncnc2[nH]cnc12)c1cc(Cl)c2ccnnc2c1-c1ccccc1F` (single isomer, unassigned) [Example 25, N-{1-[5-Chloro-8-(2-fluorophenyl)cinnolin-7-yl]ethyl}-9H-purin-6-amine], the IC50 in test [1] is > 1000 nM. On the same count and under the same terms, for `CC(Nc1ncnc2[nH]cnc12)c1cc(F)c2cccnc2c1N1CCN(C(=O)c2cnn(C)c2)CC1` (stereo not shown) [Example 103, N-[1-(5-Fluoro-8-{4-[(1-methyl-1H-pyrazol-4-yl)carbonyl]piperazin-1-yl}quinolin-7-yl)ethyl]-9H-purin-6-amine bis(trifluoroacetate)] the value was < 50 nM; for `CC(Nc1ncnc2[nH]cnc12)c1cc(F)c2ccnnc2c1-c1cc(F)cc(F)c1` (single isomer, unassigned) [Example 30, N-{1-[8-(3,5-difluorophenyl)-5-fluorocinnolin-7-yl]ethyl}-9H-purin-6-amine trifluoroacetate], > 1000 nM. In the case of `CC(Nc1ncnc2[nH]cnc12)c1cc(Cl)c2cccnc2c1N1CCC(c2ccccc2)CC1` (stereo not shown) [Example 72, N-{1-[5-Chloro-8-(4-phenylpiperidin-1-yl)quinolin-7-yl]ethyl}-9H-purin-6-amine bis(trifluoroacetate)], in test [1], the IC50 was > 1000 nM. Still for that read-out and setting: to `COCC(=O)N1CCN(c2c(C(C)Nc3ncnc4[nH]cnc34)cc(Cl)c3cccnc23)CC1` (stereo not shown) [Example 87, N-(1-{5-Chloro-8-[4-(methoxyacetyl)piperazin-1-yl]quinolin-7-yl}ethyl)-9H-purin-6-amine bis(trifluoroacetate)] belongs < 50 nM.

As for `CC(Nc1nc(N)nc2[nH]cnc12)c1ccc2ccccc2c1-c1cccc(F)c1` (stereo not shown) [Example 4, N(6)-{1-[1-(3-fluorophenyl)-2-napthyl]ethyl}-9H-purine-2,6-diamine], the IC50 lay within 500 to 1000 nM in test [1] (separated isomer, 1st peak) and 500 to 1000 nM in test [1] (separated isomer, 2nd peak). `CCC(Nc1ncnc2[nH]cnc12)c1cc(Cl)c2ccnnc2c1-c1cccc(F)c1` (single isomer, unassigned) [Example 33, N-{1-[5-chloro-8-(3-fluorophenyl)cinnolin-7-yl]propyl}-9H-purin-6-amine]: in test [1], the IC50 was < 50 nM. Still for that read-out and setting: for `CC(Nc1ncnc2[nH]cnc12)c1cc(Cl)c2cccnc2c1N1CCC(F)CC1` (stereo not shown) [Example 62, N-{1-[5-Chloro-8-(4-fluoropiperidin-1-yl)quinolin-7-yl]ethyl}-9H-purin-6-amine bis(trifluoroacetate)] the value was 100 to 250 nM; for `COC[C@H]1CCCN1c1c(C(C)Nc2ncnc3[nH]cnc23)cc(Cl)c2cccnc12` (mixture of isomers) [Example 14, N-(1-{5-chloro-8-[(2R)-2-(methoxymethyl)pyrrolidin-1-yl]quinolin-7-yl}ethyl)-9H-purin-6-amine bis-trifluoroacetate], 100 to 250 nM.

Take `Cc1noc(C)c1C(=O)N1CCN(c2c(C(C)Nc3ncnc4[nH]cnc34)cc(Cl)c3cccnc23)CC1` (stereo not shown) [Example 100, N-[1-(5-Chloro-8-{4-[(3,5-dimethylisoxazol-4-yl)carbonyl]piperazin-1-yl}quinolin-7-yl)ethyl]-9H-purin-6-amine bis(trifluoroacetate)]: the IC50 in test [1] is < 50 nM. With `CC(Nc1ncnc2[nH]cnc12)c1cc(F)c2cccnc2c1-c1cccc(F)c1` (stereo not shown) [Example 102, N-{1-[5-fluoro-8-(3-fluorophenyl)quinolin-7-yl]ethyl}-9H-purin-6-amine], the IC50 in test [1] (separated isomer, 1st peak) was < 50 nM; in test [1] (separated isomer, 2nd peak) it was > 1000 nM. For `CC(Nc1ncnc2[nH]cnc12)c1cc(Cl)c2cccnc2c1N1CCN(Cc2ccncc2)CC1` (stereo not shown) [Example 74, N-(1-{5-Chloro-8-[4-(pyridin-4-ylmethyl)piperazin-1-yl]quinolin-7-yl}ethyl)-9H-purin-6-amine tris(trifluoroacetate)], the IC50 in test [1] was < 50 nM. Still for that read-out and setting: for `CC(Nc1ncnc2[nH]cnc12)c1cc(Cl)c2conc2c1-c1cccc(F)c1` (stereo not shown) [Example 104, N-{1-[4-Chloro-7-(3-fluorophenyl)-2,1-benzisoxazol-6-yl]ethyl}-9H-purin-6-amine] the value was < 50 nM; for `CC(Nc1ncnc2[nH]cnc12)c1cc(Cl)c2ccccc2c1-c1cccc(F)c1` (stereo not shown) [Example 46, N-{1-[4-Chloro-1-(3-fluorophenyl)-2-naphthyl]ethyl}-9H-purin-6-amine], 100 to 250 nM. Still for that read-out and setting: for `CC(Nc1ncnc2[nH]cnc12)c1cc(Cl)c2cccnc2c1N1CCCC(F)C1` (stereo not shown) [Example 61, N-{1-[5-Chloro-8-(3-fluoropiperidin-1-yl)quinolin-7-yl]ethyl}-9H-purin-6-amine bis(trifluoroacetate)] the value was 250 to 500 nM.
